Where no end group is shown, it is not given here.

The subject of assay [1] is GST-hdm2, MBP-hdm2 or TRX-hdm2. Nature of the assay: solution phase phage ELISA with hdm2 fusion proteins. Particulars: phages preincubated in solution with GST-hdm2, MBP-hdm2 or TRX-hdm2. It is filed as binding, human. On the procedure: GST-, MBP-, TRX-hdm2 or baculovirus produced mdm2 (Sf9 cell extract) diluted in PBST-M are reacted in solution with hdm2- or GST-binding phage overnight at 4° C. Simultaneously, ELISA plates are coated with 100 μl Rabbit anti-mouse antibodies (DAKO, Z0259) 1:1000 in 0.1 M NaHCO3, pH 9.6. The plates are blocked as usual and incubated with monoclonal anti-mdm2 antibodies (hybridoma supernatant 1:5 diluted in PBST-M) for one hour. For the titration ELISA, purified SMP14 (8 μg/ml in PBS) is used to coat the plate directly. In either case, the pre-incubated phage-hdm2 samples are transfered to the coated and blocked plate and incubated for two hours at room temperature. Bound phages are detected as described.
Chain of GST-hdm2, MBP-hdm2 or TRX-hdm2 (Q00987 1-188 limits assumed): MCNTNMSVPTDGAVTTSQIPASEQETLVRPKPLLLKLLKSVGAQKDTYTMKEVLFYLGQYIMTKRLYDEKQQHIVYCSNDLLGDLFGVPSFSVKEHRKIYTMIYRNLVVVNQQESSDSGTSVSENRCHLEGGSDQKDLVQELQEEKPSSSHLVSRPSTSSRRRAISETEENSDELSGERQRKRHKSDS
For these experiment clones BB2/BB11 (GST binding control phage) and BB3/BB10 (hdm2 phage) are chosen. Phages are preincubated in solution with GST-hdm2, MBP-hdm2 or TRX-hdm2 and the phage-hdm2 complexes are transfered to wells which contain different monoclonal anti-mdm2 antibodies bound to the solid phase via anti-mouse antibodies. Bound phages are detected. […] All three anti-mdm2 antibodies used (SMP 14, 4B2, 3G5) are able to bind to hdm2 complexed with GST-phage. Antibody SMP14 is commercially available and described in Picksley et al., Oncogene 9, 2523–2529 (1994) incorporated by reference above. […] Phage-hdm2 complexes are pulled down by solid phase SMP14 and bound phages are detected. […]
For orientation: An ELISA detects its analyte on a solid surface through an enzyme-linked reagent.

The test system of assay [2] is Vrn.6 cells stably transfected with pRGC ΔFosLacz, a p53 responsive β-galactosidase reporter. The experiment in a line: p53 responsive β-galactosidase reporter after microinjection into Vrn.6 cells. Type of assay: cell-based, rat. Particulars: Vrn.6 cells having overexpressed MDM2; injected intranuclearly; 24 hours.
Source text: (§3) Antibodies or DNA encoding the described binding elements may be microinjected into Vrn.6 cells, a transformed rat thyroid epithelial cell line and T22 cells, a mouse prostrate derived cell line both cell lines being stably transfected with pRGC ΔFosLacz, a p53 responsive β-galactosidase reporter. […] Vrn.6 tolerate high levels of wild type p53 and overexpress MDM2 at a protein level. T22 cells typically contain low levels of p53 and mdm2.
(§4) For microinjection, cells may be seeded into tissue culture dishes and grown to 60–70% confluence. Microinjection may be performed using an Eppendorfer microinjection system (Microinjector 5242, Micromanipulator 5170) mounted to an Axiovert light microscope (Zeiss) having a heated stage.
(§5) Purified mouse monoclonal antibodies 3G5 and 4B2 may be injected intranuclearly and cytoplasmicly in PBS at a concentration of 1.3 mg/ml. Plasmid DNA encoding for TIP 12/1, TIP wt and Trx may be injected intronuclearly in water at a concentration of 0.25 mg 7 ml. Following microinjection, fresh medium may be added to the cell cultures and the cultures further incubated for 24 hours.
(§6) To detect β-galactosidase activity, cells may be washed with PBS and fixed with 2% formaldehyde, /0.2% glutaraldehyde in PBS for 5 minutes on ice. […]
Assay [3] deals with T22 cells stably transfected with pRGC ΔFosLacz, a p53 responsive β-galactosidase reporter. The experiment in a line: p53 responsive β-galactosidase reporter after microinjection into T22 cells. It is filed as cell-based, mouse. As to conditions: low level p53 and mdm2, 24 hours.
Source text: as §3, §4, §5, §6
For assay [4], the system named is MCF-7 cells, pRGCΔFosLacZ reporter. The experiment in a line: transient transfection, p53 reporter induction in MCF-7 cells. It is filed as cell-based. Particulars: transfected plasmid DNA, 48 hours after transfection. The method, then:
(§1) The OSA cell line contains a highly elevated mdm2 level due to gene amplification (Florence et al., 1994). The U2-OS cell line has no gene amplification for mdm2 but has elevated levels of dmd2-mRNA (Florence et al. 1994). The MCF-7 cell line contains heterogenously expressed low levels of wild type p53 and no reported mdm2 elevation.
(§2) For transient transfection and reporter induction, cells are seeded into 6 well plates at 1.5×10^6 cell per well. They are grown to a density of 80% confluence and transfected using different Lipophilic reagents such Lipofectin and Lipofectamin from Promega or Dosper and Dotap from Boehringer. […] Two to four hours after transfection, complete medium is added. Forty-eight hours after transfection β-galactosidase activity is measured using […] (Boehringer) as a substrate. Cells are scraped into PBS and centrifuged. Pellets from each well are dissolved in 50 μl of Reporter Lysis buffer (Promega) and incubated on ice for 15 minutes. Soluble Lysates are incubated with CPRG in 100 mM phosphate buffer, pH 7.0. Optical Density at 595 nm is measured 1 to 24 hours later.

The test system of assay [5] is U2-OS cells, pRGCΔFosLacZ reporter. The experiment in a line: transient transfection, p53 reporter induction in U2-OS cells. It is filed as cell-based. As to conditions: transfected plasmid DNA, 48 hours after transfection. The method, then:
as §1, §2

For assay [6], the system named is OSA cells, pRGCΔFosLacZ reporter. The experiment in a line: transient transfection, p53 reporter induction in OSA cells. It is filed as cell-based, human. Particulars: highly elevated mdm2, transfected plasmid DNA, 48 hours after transfection. The method, then:
as §1, §2

Consider PAFSRFWSADLSAGAH [BB3], for which, in assay [1], the “binding of phage to hdm2 fusion proteins” value is recorded as “recognizes all three hdm2 fusion proteins”.

Regarding “Trx: negative control binding element comprising thioredoxin without a peptide insert [reference compound]”, the “β-galactosidase response (blue stained cells) of p53 reporter” value in assay [2] is given as “not a positive response”; in assay [3], “No response”.

Turning to “TIP 12/1: binding element: E. coli thioredoxin presenting the peptide insert of clone 12/1 in its active site, delivered as encoding plasmid DNA (MPRFMDYWEGLN; not fully specified; printed as M-P-R-F-M-D-Y-W-E-G-L-N)”, the “β-galactosidase response (blue stained cells) of p53 reporter” value in assay [3] is “strong positive response”. Moreover, the “induction of the p53 reporter (β-galactosidase activity)” value in assay [4] is “most induction”; in assay [5], “most induction”; in assay [6], “Lower induction”.

The values above are taken from patent publication US7083983B2, “Inhibitors of the interaction between P53 and MDM2” (Cancer Research Campaign Technology Limited, priority 1996, dated 2006).
